In patent US8741911B2, “Raf inhibitor compounds” (Eli Lilly and Company, priority 2012, dated 2014):
Where two headings read alike, the source gives them in different places.

What was measured:
NCI-H1299 = assay: CellTiter-Glo proliferation and viability assay; type: cell-based; settings: Homo sapiens
[1] = test system: phospho-MEK and phospho-ERK in A375 cells; assay: Immunoblotting (Western Blot) analysis of phospho-MEK and phospho-ERK; type: cell-based, human
Procedure: Testing is carried out at doses of 0, and 11 serial dilutions ranging from 0.17 to 10000 nM. Protein lysates are generated by treatment of the cells with RIPA lysis buffer from Millipore. Western blotting analysis is performed substantially as described in Yadav et al, Molecular Carcinogenesis, 2011, 50: 346-52. Briefly, SDS-PAGE is performed on cell lysates containing 20 ug of total protein using 4-20% Novex® tri-glycine gradient gels (Invitrogen). Protein is transferred onto […] nitrocellulose membranes using NuPAGE® Transfer Buffer (Invitrogen) and 10% methanol at 100 V, 4° C. for 1 hr. Generally, the primary antibody is used at 1:1000 dilution, and secondary antibody at 1:20000 dilution. Proteins are detected using the Odyssey Infrared Imaging System (Li-COR Biosciences). Antibodies against ERK1/2, phospho-ERK1/2, phospho-MEK1/2, and actin are obtained from Cell Signaling Technology.
Phospho-ERK activity was substantially eliminated at 41 nM.

EB2 = assay: CellTiter-Glo proliferation and viability assay; type: cell-based; settings: Homo sapiens
MKN45 = assay: CellTiter-Glo proliferation and viability assay; type: cell-based; settings: Homo sapiens
A549 = assay: CellTiter-Glo proliferation and viability assay; type: cell-based; settings: Homo sapiens
MV-4-11 = assay: CellTiter-Glo proliferation and viability assay; type: cell-based; settings: Homo sapiens
A2780 = assay: CellTiter-Glo proliferation and viability assay; type: cell-based; settings: Homo sapiens
[2] = test system: SK-MeI-2 cells harboring N-Ras mutation Q61R, and B-Raf wild type; assay: CellTiter-Glo proliferation and viability assay; type: cell-based; settings: Homo sapiens; SK-MeI-2, CellTiter-Glo; read-out: cell proliferation and viability IC50
SK-OV-3 = assay: CellTiter-Glo proliferation and viability assay; type: cell-based; settings: Homo sapiens
LOUCY = assay: CellTiter-Glo proliferation and viability assay; type: cell-based; settings: Homo sapiens, read-out: Abs IC50
CCRF-CEM = assay: CellTiter-Glo proliferation and viability assay; type: cell-based; settings: Homo sapiens, read-out: Abs IC50
HL-60 = assay: CellTiter-Glo proliferation and viability assay; type: cell-based; settings: Homo sapiens
A375 cells = assay: CellTiter-Blue A375 cell proliferation assay; type: cell-based; settings: Homo sapiens, A-375, read-out: Cell Proliferation Inhibition IC50
Procedure: Collection (ATCC, Manassas, Va.). Briefly, cells are grown in DMEM High Glucose supplemented with 10% characterized fetal bovine serum (Invitrogen, Carlsbad, Calif.) and 1% Penicillin/Streptomycin/L-Glutamine at 37 degrees Celsius, 5% CO2, and 95% humidity. Cells are allowed to expand until reaching 70-95% confluency at which point they are subcultured or harvested for assay use. A serial dilution of test compound is dispensed into a 384-well black clear bottom plate in triplicate. Six hundred twenty-five cells are added per well in 50 μL complete growth medium in the 384-well plate. Plates are incubated for 67 hours at 37 degrees Celsius, 5% CO2, and 95% humidity. At the end of the incubation period, 10 μL of a 440 μM solution of resazurin (Sigma, St. Louis, Mo.) in PBS is added to each well of the plate and plates are incubated for an additional 5 hours at 37 degrees Celsius, 5% CO2, and 95% humidity. Plates are read on a Synergy2 reader (Biotek, Winooski, Vt.) using an excitation of 540 nm and an emission of 600 nm. Data is analyzed using Prism software (Graphpad, San Diego, Calif.) to calculate IC50 values.
The A375, HT-29, and Colo-205 cells (ATCC) harbor a V600E mutation.

TALL-1 = assay: CellTiter-Glo proliferation and viability assay; type: cell-based; settings: Homo sapiens, read-out: Abs IC50
Colo-205 = assay: CellTiter-Glo proliferation and viability assay; type: cell-based; settings: Homo sapiens, Colo-205, B-Raf V600E, colon
Description: (§1) B-Raf mutations, particularly B-Raf V600E in human cancer are often observed in human malignancies including melanoma, colorectal, lung, and ovarian cancers. This mutation in B-Raf may lead to constitutive kinase activity and malignant transformation.

WM-266-4 = assay: CellTiter-Glo proliferation and viability assay; type: cell-based; settings: Homo sapiens, WM-266-4, B-Raf V600E, melanoma
Description: as §1

Calu-6 = assay: CellTiter-Glo proliferation and viability assay; type: cell-based; settings: Homo sapiens
SiHa = assay: CellTiter-Glo proliferation and viability assay; type: cell-based; settings: Homo sapiens
NCI-H1155 = assay: CellTiter-Glo proliferation and viability assay; type: cell-based; settings: Homo sapiens
[3] = test system: phospho-ERK in HCT-116 (K-Ras mutant B-Raf wild type) cells; assay: SureFire phospho-ERK AlphaScreen cellular assay; type: cell-based; settings: Homo sapiens, 1 hour treatment
Procedure: (§2) A375 V600E, WM-266-4 V600E, HCT-116 K-Ras mutant B-Raf wild type are from ATCC. The cellular activities are assessed by an ELISA assay commercially available from TGR Biosciences to measure the phospho-ERK levels of each cell type.
(§3) The cells in each well are then lysed with 50 μl lysis buffer from TGR Biosciences. The phospho-ERK activities are determined with SureFire phospho-ERK AlphaScreen assay kit from TGR Biosciences per manufacturer's instruction.

[4] = test system: phospho-ERK in WM-266-4 V600E cells; assay: SureFire phospho-ERK AlphaScreen cellular assay; type: cell-based; settings: Homo sapiens, 1 hour treatment
Procedure: as §2, §3

[5] = test system: phospho-ERK in A375 V600E cells; assay: SureFire phospho-ERK AlphaScreen cellular assay; type: cell-based; settings: Homo sapiens, A-375, 1 hour treatment
Procedure: as §2, §3

[6] = test system: phospho-ERK in A375 V600E-PLX4032 resistant cells (A375-res); assay: SureFire phospho-ERK AlphaScreen cellular assay; type: cell-based; settings: Homo sapiens, A-375, 1 hour treatment
Procedure: as §2, §3

NCI-H2030 = assay: CellTiter-Glo proliferation and viability assay; type: cell-based; settings: Homo sapiens

IC50 (NCI-H1299; read-out: Abs IC50): 0.91 nM
IC50 (NCI-H1299; read-out: Rel IC50): 0.14 nM
IC50 (MKN45; MKN-45, read-out: Abs IC50): 5.72 nM
IC50 (MKN45; MKN-45, read-out: Rel IC50): 0.87 nM
IC50 (A549; read-out: Abs IC50): 4.42 nM
IC50 (A549; read-out: Rel IC50): 2.07 nM
IC50 (MV-4-11; MV4-11, read-out: Abs IC50): 0.98 nM
IC50 (MV-4-11; MV4-11, read-out: Rel IC50): 1.87 nM
IC50 (A2780; read-out: Abs IC50): 0.81 nM
IC50 (A2780; read-out: Rel IC50): 0.2 nM
IC50 [2]: 188 nM
IC50 (SK-OV-3; read-out: Abs IC50): > 20 nM
IC50 (SK-OV-3; read-out: Rel IC50): 10.8 nM
IC50 (CCRF-CEM): 1.5 nM
IC50 (HL-60; read-out: Abs IC50): 0.2 nM
IC50 (HL-60; read-out: Rel IC50): 0.14 nM
IC50 (A375 cells): 9 nM
IC50 (Colo-205): 27 nM
IC50 (Calu-6; read-out: Abs IC50): 0.24 nM
IC50 (Calu-6; read-out: Rel IC50): 0.22 nM
IC50 (NCI-H1155; read-out: Abs IC50): > 20 nM
IC50 (NCI-H1155; read-out: Rel IC50): 0.47 nM
IC50 [3]: 133 nM
IC50 [4]: 4.9 nM
IC50 [5]: 3 nM
IC50 [6]: 9.7 nM
IC50 (NCI-H2030; read-out: Abs IC50): 0.83 nM
IC50 (NCI-H2030; read-out: Rel IC50): 0.41 nM
SMILES: CNc1ncc2cc(-c3cc(NC(=O)NCCC(C)(C)C)c(F)cc3C)c(C)nc2n1 [Example 1, 1-(3,3-Dimethylbutyl)-3-(2-fluoro-4-methyl-5-(7-methyl-2-(methylamino)pyrido[2,3-d]pyrimidin-6-yl)phenyl)urea]
concentration at which phospho-ERK activity was substantially eliminated [1]: 41 nM
phospho-MEK and phospho-ERK activities [1]: inhibited phospho-MEK and phospho-ERK activities
IC50 (EB2; read-out: Abs IC50): > 20 nM
IC50 (EB2; read-out: Rel IC50): 0.5 nM
IC50 (LOUCY): 6.93 nM
IC50 (TALL-1): 0.75 nM
IC50 (WM-266-4): 52.9 nM
IC50 (SiHa; read-out: Abs IC50): > 20 nM
IC50 (SiHa; read-out: Rel IC50): > 20 nM
